# Laboratory results as given in ChEMBL document CHEMBL3045503, “Mode of Action of Herbicides Affecting Carotenogenesis” (J Pestic Sci, 1996).
# Legend:
# [1] = tested on: Nicotiana tabacum; test: Inhibition of colored carotenoid formation in transgenic Nicotiana tabacum (tobacco) ET4-208; type: functional, organism-based; details: read-out: I50
# [2] = tested on: Nicotiana tabacum; test: Inhibition of colored carotenoid formation in Nicotiana tabacum (tobacco); type: functional, organism-based; details: read-out: I50
# [3] = tested on: Pantoea ananatis; test: Resistance factor, ratio of I50 for Pantoea ananatis NFZ20 phytoene desaturase mutant to I50 for wild-type Erwinia uredovora phytoene desaturase by cell-free assay
# [4] = tested on: Pantoea ananatis; test: Resistance factor, ratio of I50 for Pantoea ananatis NFZ42 phytoene desaturase mutant to I50 for wild-type Erwinia uredovora phytoene desaturase by cellular assay
# [5] = tested on: Pantoea ananatis; test: Resistance factor, ratio of I50 for Pantoea ananatis NFZ42 phytoene desaturase mutant to I50 for wild-type Erwinia uredovora phytoene desaturase by cell-free assay
# [6] = tested on: Pantoea ananatis; test: Resistance factor, ratio of I50 for Pantoea ananatis NFZ4 phytoene desaturase mutant to I50 for wild-type Erwinia uredovora phytoene desaturase by cellular assay
# [7] = tested on: Pantoea ananatis; test: Resistance factor, ratio of I50 for Pantoea ananatis NFZ20 phytoene desaturase mutant to I50 for wild-type Erwinia uredovora phytoene desaturase by cellular assay
# [8] = tested on: Pantoea ananatis; test: Resistance factor, ratio of I50 for Pantoea ananatis NFZ4 phytoene desaturase mutant to I50 for wild-type Erwinia uredovora phytoene desaturase by cell-free assay
SMILES,IC50 [1],IC50 [2],Ratio [3],Ratio [4],Ratio [5],Ratio [6],Ratio [7],Ratio [8]
CC1(C)CC(=O)C(C(=O)c2ccc(Cl)cc2[N+](=O)[O-])C(=O)C1,0.048 µM,42 nM,,,,,,
C=C(Cl)COc1cc(C)nc(NC(C)C)n1,> 100 µM,4500 nM,,,,,,
CCC(COc1cccc(C(F)(F)F)c1)OC(=O)NCCc1ccccc1 (configuration not stated),> 100 µM,1300 nM,,,,,,
CCOC(=O)C1=C(c2ccccc2)OC(CC)C(C)C1=O (configuration not stated),> 100 µM,740 nM,,,,,,
Nc1nc[nH]n1 [AMITROLE],72 µM,68000 nM,,,,,,
O=C(Nc1ccc(F)cc1F)c1cccnc1Oc1cccc(C(F)(F)F)c1 [DIFLUFENICAN],> 100 µM,38 nM,,,,,,
O=c1c(-c2ccccc2)c[nH]cc1-c1cccc(C(F)(F)F)c1 [FLURIDONE],,,8,0.5,1,4,8,
CNC1=C(c2cccc(C(F)(F)F)c2)C(=O)C(c2ccccc2)O1 (configuration not stated) [FLURTAMONE],> 100 µM,47 nM,,,,,,
CNc1cnn(-c2cccc(C(F)(F)F)c2)c(=O)c1Cl [NORFLURAZONE],> 100 µM,330 nM,12,40,23,24,20,15
